IC50 data for 64 compounds are collected here from patent US12398111B2, “Triazine compounds and pharmaceutical use thereof” (Japan Tobacco Inc., priority 2014, dated 2025).

Usually IC50 stands for the concentration that inhibits the measured activity by half.

This assay concerns the target T1, human mPGES-1 (Homo sapiens, UniProt O14684).
T1 construct: made in house; host or cells: FreeStyle CHO-S cells (Chinese hamster ovary), transient transfection with pcDNA3.1(+)/human mPGES-1; microsome fraction used
T1 sequence (O14684 1-152): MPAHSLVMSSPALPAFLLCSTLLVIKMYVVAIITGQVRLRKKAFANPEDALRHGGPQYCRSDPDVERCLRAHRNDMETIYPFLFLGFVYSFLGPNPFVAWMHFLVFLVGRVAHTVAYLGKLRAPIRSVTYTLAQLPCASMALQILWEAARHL
Put plainly: Evaluation of human mPGES-1 enzyme inhibitory activity (PGE2 measured by HTRF, microsome fraction of CHO-S cells expressing human mPGES-1). Type of assay: biochemical. The settings on record: IC50 value; microsome fraction of CHO-S cells expressing human mPGES-1, PGE2 by HTRF. In outline:
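Enzyme source: microsomes from CHO-S cells transfected with human mPGES-1 and cultured 48 hr, diluted to 5 μg/mL protein in reduced GSH (12.5 mmol/L KPB solution). Test articles were in 0.1 mol/L potassium phosphate pH 7.4, final DMSO 2% (v/v). PGE2 formed was quantified by HTRF.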
`CC1(C(=O)NCc2ccc(Cl)c(-c3nc(O)nc(-c4ccccc4)n3)c2)Cc2ccccc2C1` [Example 1-262] displayed an IC50 of 7 nM.
As for `OCc1ccc(Cl)c(-c2nc(O)nc(-c3ccc(C(F)(F)F)cc3)n2)c1` [Example 1-12], half-maximal inhibition (IC50) was put at 15 nM.
Compound `CCCc1cc(-c2nc(O)nc(-c3cc(CNC(=O)C(C)(C)C(F)(F)F)ccc3Cl)n2)ccc1F` [Example 1-118] showed an IC50 of 1.9 nM.
As for `CC(C)(C(=O)NCc1ccc(Cl)c(-c2nc(O)nc(-c3cccc(C4CC4)c3)n2)c1)C(F)(F)F` [Example 1-159], the IC50 was found to be 0.7 nM.
On to `Cc1cccc(C)c1-c1nc(O)nc(-c2ccc(C(F)(F)F)cc2F)n1` [Example 2-9], for which half-maximal inhibition (IC50) was put at 6400 nM.
In the case of `Oc1nc(-c2ccc(C(F)(F)F)cc2)nc(-c2cc(OC(F)(F)F)ccc2Cl)n1` [Example 1-5], it took 672 nM to reach half-maximal inhibition (IC50).
The compound `Oc1nc(-c2ccc(C#Cc3ccccc3)cc2)nc(-c2c(OCc3ccc(F)cn3)cccc2C(F)(F)F)n1` [Example 2-115] displayed an IC50 of 3 nM.
`CC(C)CC(=O)N(C)Cc1ccc(Cl)c(-c2nc(O)nc(-c3ccccc3)n2)c1` [Example 1-226] gave a half-inhibitory concentration (IC50) of 2200 nM.
For `CCc1cccc(-c2nc(O)nc(-c3cc(CNC(=O)C(C)(C)C)ccc3Cl)n2)c1` [Example 1-55] the value was 1.1 nM; for `CC(C)COc1ccc(-c2nc(O)nc(-c3c(Cl)cccc3O[C@@H](C)c3ccccn3)n2)cc1` [Example 2-67], 27 nM; for `Cc1ccccc1C#Cc1ccc(-c2nc(O)nc(-c3c(OCc4ccccn4)cccc3C(F)(F)F)n2)cc1` [Example 2-100], 5.6 nM.
The compound `Cc1ccc(Cl)c(-c2nc(O)nc(-c3ccc(C(F)(F)F)cc3)n2)c1OCc1ccccn1` [Example 3-13] gave an IC50 of 34 nM.
The figure for `CCOc1ccc(-c2nc(O)nc(-c3c(C)cccc3C)n2)cc1` [Example 2-40] is 1300 nM; for `N#Cc1cccc(OCc2ccccn2)c1-c1nc(O)nc(-c2ccc(C#Cc3ccccc3)cc2)n1` [Example 2-88] it is 2 nM; for `CC(C)(C(=O)NCc1ccc(Cl)c(-c2nc(O)nc(-c3ccc(OC4CCC4)cc3)n2)c1)C(F)(F)F` [Example 1-141] it is 1.1 nM.
In turn, `CC1(C)CC(C(=O)NCc2ccc(Cl)c(-c3nc(O)nc(-c4ccc(OCC5CC5)cc4)n3)c2)C1` [Example 1-168] came in with an IC50 of 2.1 nM.
The compound `CC(C)c1cccc(-c2nc(O)nc(-c3cc(CNC(=O)C(C)(C)C(F)(F)F)ccc3Cl)n2)c1` [Example 1-107] returned an IC50 of 1.2 nM.
For `Oc1nc(-c2ccc(C#Cc3ccccc3C(F)(F)F)cc2)nc(-c2c(OCc3ccccn3)cccc2C(F)(F)F)n1` [Example 2-103], the IC50 is 10 nM.
Take `Oc1nc(-c2ccc(OCC3CC3)cc2)nc(-c2c(Cl)cccc2OCc2ccccn2)n1` [Example 2-89]: the IC50 was 18 nM.
In turn, `CN(Cc1ccc(Cl)c(-c2nc(O)nc(-c3ccc(C#CC4CCCCC4)cc3)n2)c1)C(=O)C(C)(C)C(F)(F)F` [Example 1-213] returned an IC50 of 88 nM.
`CO[C@](C)(C(=O)NCc1ccc(Cl)c(-c2nc(O)nc(-c3ccc(OCC4CC4)cc3)n2)c1)C(F)(F)F` [Example 1-162] displayed an IC50 of 1.2 nM.
Consider `Cc1c(CNC(=O)C(C)(C)C)ccc(Cl)c1-c1nc(O)nc(-c2ccc(C(F)(F)F)cc2)n1` [Example 3-8], for which the IC50 was 1 nM.
The compound `CC(=O)NCc1ccc(C)c(-c2nc(O)nc(-c3ccc(C(F)(F)F)cc3)n2)c1` [Example 1-47] came in with an IC50 of 43 nM.
Take `OCCOc1cccc(Cl)c1-c1nc(O)nc(-c2ccc(C(F)(F)F)cc2)n1` [Example 2-22]: the IC50 amounted to 219 nM.
The figure for `Cc1cccc(COc2cccc(C(F)(F)F)c2-c2nc(O)nc(-c3ccc(C#Cc4ccccc4OC(F)(F)F)cc3)n2)n1` [Example 2-129] is 32 nM; for `NCc1ccc(Cl)c(-c2nc(O)nc(-c3ccc(C(F)(F)F)cc3)n2)c1` [Example 1-17] it is 735 nM; for `Cc1ccc(-c2nc(O)nc(-c3cc(CNC(=O)C(C)(C)C)ccc3Cl)n2)cc1` [Example 1-63] it is 0.5 nM.
In the case of `COCCOc1ccc(-c2nc(O)nc(-c3cc(CNC(=O)C(C)(C)C(F)(F)F)ccc3Cl)n2)cc1` [Example 1-144], the IC50 was 0.9 nM.
In the case of `CC(C)OC(=O)NCc1ccc(Cl)c(-c2nc(O)nc(-c3ccc(C(F)(F)F)cc3)n2)c1` [Example 1-39], the IC50 stood at 1.9 nM.
Regarding `CCCCc1ccc(Cl)c(-c2nc(O)nc(-c3ccc(OCC(C)(C)C)cc3)n2)c1` [Example 1-205], the IC50 was 367 nM.
In turn, `CC(C)(C)COc1ccc(-c2nc(O)nc(-c3cc(CO)ccc3Cl)n2)cc1` [Example 1-187] displayed an IC50 of 5.3 nM.
Compound `CC(C)(C)COc1ccc(-c2nc(O)nc(-c3cc(CNCC(F)(F)F)ccc3Cl)n2)cc1` [Example 1-212] returned an IC50 of 32 nM.
`CC(C)(C)S(=O)(=O)NCc1ccc(Cl)c(-c2nc(O)nc(-c3ccc(C(F)(F)F)cc3)n2)c1` [Example 1-32]: 0.7 nM corresponded to half-maximal inhibition (IC50).
With `CC(C)(C)C(=O)NCc1ccc(Cl)c(-c2nc(O)nc(-c3ccc(F)cc3)n2)c1` [Example 1-74], the IC50 was found to be 0.6 nM.
In the case of `COc1c(CNC(C)=O)ccc(Cl)c1-c1nc(O)nc(-c2ccc(C(F)(F)F)cc2)n1` [Example 3-5], the IC50 turned out to be 341 nM.
Compound `Cc1cccc(C)c1-c1nc(O)nc(-c2ccc(CC(C)C)cc2)n1` [Example 2-39] showed an IC50 of 450 nM.
For the compound `Cc1cccc(C)c1-c1nc(O)nc(-c2ccc(OCC3CC3)cc2)n1` [Example 2-74], the IC50 came to 424 nM.
The figure for `Cc1cccc(-c2nc(O)nc(-c3cc(CNC(=O)C(C)(C)C(F)(F)F)ccc3Cl)n2)c1` [Example 1-111] is 1.2 nM.
`CC(C)OC(=O)NCc1ccc(Cl)c(-c2nc(O)nc(-c3cccc(C(C)(C)C)c3)n2)c1` [Example 1-83] displayed a 50% inhibitory concentration (IC50) of 11 nM.
For the compound `CO[C@](C)(C(=O)NCc1ccc(Cl)c(-c2nc(O)nc(-c3ccc(C(F)(F)F)cc3)n2)c1)C(F)(F)F` [Example 1-126], the IC50 turned out to be 0.8 nM.
The compound `Cc1cc(-c2nc(O)nc(-c3cc(CNC(=O)C(C)(C)C(F)(F)F)ccc3Cl)n2)cc(C)c1OCC1CC1` [Example 1-176] displayed an IC50 of 1.8 nM.
Turning to `CCCC(CO)(CCC)C(=O)NCc1ccc(Cl)c(-c2nc(O)nc(-c3ccccc3)n2)c1` [Example 1-259], it took 176 nM to reach half-maximal inhibition (IC50).
The figure for `Cc1c(CNC(=O)C(C)(C)C(F)(F)F)ccc(Cl)c1-c1nc(O)nc(-c2ccc(OCC(C)C)cc2)n1` [Example 3-18] is 1.2 nM.
As for `COCCc1ccc(Cl)c(-c2nc(O)nc(-c3ccc(OCC(C)(C)C)cc3)n2)c1` [Example 1-199], the IC50 came out at 31 nM.
As to `CN(C)C(=O)NCc1ccc(Cl)c(-c2nc(O)nc(-c3ccc(C(F)(F)F)cc3)n2)c1` [Example 1-34], the IC50 stood at 5.9 nM.
Regarding `CN(CCc1ccc(Cl)c(-c2nc(O)nc(-c3ccc(OCC(C)(C)C)cc3)n2)c1)C(=O)C(C)(C)C(F)(F)F` [Example 1-227], the IC50 was determined as 50 nM.
Compound `Cc1ccc(COc2cccc(C(F)(F)F)c2-c2nc(O)nc(-c3ccc(C#Cc4ccccc4)cc3)n2)nc1` [Example 2-114] displayed an IC50 of 4.9 nM.
In the case of `COc1c(CO)ccc(Cl)c1-c1nc(O)nc(-c2ccc(C(F)(F)F)cc2)n1` [Example 3-2], the IC50 is 148 nM.
The figure for `Oc1cccc(COc2cccc(C(F)(F)F)c2-c2nc(O)nc(-c3ccc(C#Cc4ccccc4)cc3)n2)n1` [Example 2-119] is 1.8 nM; for `Cc1cccc(C)c1-c1nc(O)nc(-c2ccc(OCC3CCC3)cc2)n1` [Example 2-51] it is 90 nM.
Compound `Cc1cc(Cl)c(-c2nc(O)nc(-c3ccc(OCC4CC4)cc3)n2)cc1C(=O)N(C)C` [Example 3-22] yielded an IC50 of 6900 nM.
In turn, `CC(C)COc1cccc(Cl)c1-c1nc(O)nc(-c2ccc(C(F)(F)F)cc2)n1` [Example 2-33] gave an IC50 of 102 nM.
The figure for `CCCOc1ccc(-c2nc(O)nc(-c3cc(CNC(=O)C4(C(F)(F)F)CC4)ccc3Cl)n2)cc1` [Example 1-154] is 0.5 nM.
In turn, `Oc1nc(-c2ccc(C#CC3CC3)cc2)nc(-c2c(Cl)cccc2OCc2ccccn2)n1` [Example 2-82] came in with an IC50 of 1.7 nM.
For `Oc1nc(-c2ccc(C(F)(F)F)cc2)nc(-c2c(Cl)cccc2OCc2ccncc2)n1` [Example 2-61] the value was 92 nM; for `CC1(C(=O)NCc2ccc(Cl)c(-c3nc(O)nc(-c4ccccc4)n3)c2)CCC1` [Example 1-72], 1.3 nM.
In turn, `O=C(NCc1ccc(Cl)c(-c2nc(O)nc(-c3ccc(OCC4CC4)cc3)n2)c1)C1CCC(F)(F)CC1` [Example 1-170] returned an IC50 of 1.5 nM.
`CCCCNC(=O)c1cc(-c2nc(O)nc(-c3ccc(OCC4CC4)cc3)n2)c(Cl)cc1C` [Example 3-23] yielded an IC50 of 41 nM.
As for `CC(C)(C(=O)NCc1ccc(Cl)c(-c2nc(O)nc(-c3cccc(OCC(F)(F)F)c3)n2)c1)C(F)(F)F` [Example 1-99], the IC50 is 0.7 nM.
`CN(Cc1ccc(Cl)c(-c2nc(O)nc(-c3ccccc3)n2)c1)C(=O)C(C)(C)C(F)(F)F` [Example 1-220]: the IC50 worked out at 16 nM.
For `COCc1ccc(Cl)c(-c2nc(O)nc(-c3ccc(C(F)(F)F)cc3)n2)c1` [Example 1-19] the value was 411 nM; for `CC(C)(C)COc1ccc(-c2nc(O)nc(-c3c(Cl)cccc3OCc3ncccn3)n2)cc1` [Example 2-68], 672 nM.
Turning to `CC(C)CC(=O)NCc1ccc(Cl)c(-c2nc(O)nc(-c3ccc(C(F)(F)F)cc3)n2)c1` [Example 1-37], the IC50 stood at 0.8 nM.
`CC(C)(C(=O)NCc1ccc(Cl)c(-c2nc(O)nc(-c3cccc(C4CCC4)c3)n2)c1)C(F)(F)F` [Example 1-100] came in with an IC50 of 0.9 nM.
